Experimental data as given in ChEMBL document CHEMBL1145592, “Pleuromutilin derivatives having a purine ring. Part 1: new compounds with promising antibacterial activity against resistant Gram-positive pathogens” (2008).
Values after ≈ are worked out from the molar mass of the structure shown.

Columns and labels:
Type in all cases: functional
[1] = test system: Streptococcus pneumoniae; assay: Antibacterial activity against penicillin-susceptible Streptococcus pneumoniae ATCC 49619
[2] = test system: Streptococcus pyogenes; assay: Antibacterial activity against Streptococcus pyogenes ATCC 12344
[3] = test system: Enterococcus faecium; assay: Antibacterial activity against vancomycin-resistant Enterococcus faecium KU1778
[4] = test system: Staphylococcus aureus; assay: Antibacterial activity against methicillin-resistant Staphylococcus aureus KMP9
[5] = test system: Streptococcus pneumoniae; assay: Antibacterial activity against penicillin-resistant Streptococcus pneumoniae KT2524
[6] = test system: Moraxella catarrhalis; assay: Antibacterial activity against Moraxella catarrhalis K1209
[7] = test system: Haemophilus influenzae; assay: Antibacterial activity against Haemophilus influenzae TH13
[8] = test system: Staphylococcus aureus; assay: Antibacterial activity against methicillin-susceptible Staphylococcus aureus Smith
[9] = test system: Staphylococcus aureus; assay: Antibacterial activity against methicillin-susceptible Staphylococcus aureus Smith infected iv dosed mouse 1 hr after inoculation

Row | SMILES | MIC [1] | MIC [2] | MIC [3] | MIC [4] | MIC [5] | MIC [6] | MIC [7] | MIC [8] | ED50 [9]
1 | C=C[C@]1(C)C[C@@H](OC(=O)CSC2CCN(C(=O)CCn3cnc4c(N5CCC(N)C5)ncnc43)CC2)[C@]2(C)[C@H](C)CC[C@]3(CCC(=O)[C@@H]32)[C@@H](C)[C@@H]1O (stereo partly drawn) | 0.016 µg/mL (≈ 0.0217 µM) | 0.016 µg/mL (≈ 0.0217 µM) | 0.032 µg/mL (≈ 0.0435 µM) | 0.125 µg/mL (≈ 0.17 µM) | 0.032 µg/mL (≈ 0.0435 µM) | 0.032 µg/mL (≈ 0.0435 µM) | 1 µg/mL (≈ 1.36 µM) | 0.063 µg/mL (≈ 0.0856 µM) | 
2 | C=C[C@]1(C)C[C@@H](OC(=O)CSC2CCN(C(=O)CCn3cnc4c(N5CCC(NC)C5)nc(N)nc43)CC2)[C@]2(C)[C@H](C)CC[C@]3(CCC(=O)[C@@H]32)[C@@H](C)[C@@H]1O (stereo partly drawn) | 0.063 µg/mL (≈ 0.0823 µM) | 0.032 µg/mL (≈ 0.0418 µM) | 0.25 µg/mL (≈ 0.327 µM) | 1 µg/mL (≈ 1.31 µM) | 0.063 µg/mL (≈ 0.0823 µM) | 0.125 µg/mL (≈ 0.163 µM) | 1 µg/mL (≈ 1.31 µM) | 0.25 µg/mL (≈ 0.327 µM) | 1.72 mg/kg
3 | C=C[C@]1(C)C[C@@H](OC(=O)CSC2CCN(C(=O)CCn3cnc4c(N5CCC(NC)C5)ncnc43)CC2)[C@]2(C)[C@H](C)CC[C@]3(CCC(=O)[C@@H]32)[C@@H](C)[C@@H]1O (stereo partly drawn) | 0.016 µg/mL (≈ 0.0213 µM) | 0.016 µg/mL (≈ 0.0213 µM) | 0.032 µg/mL (≈ 0.0427 µM) | 0.25 µg/mL (≈ 0.333 µM) | 0.032 µg/mL (≈ 0.0427 µM) | 0.063 µg/mL (≈ 0.084 µM) | 2 µg/mL (≈ 2.67 µM) | 0.063 µg/mL (≈ 0.084 µM) | 1.61 mg/kg
4 | C=C[C@]1(C)C[C@@H](OC(=O)CSC2CCN(C(=O)CCn3cnc4c(N5CCC(CNC)C5)nc(N)nc43)CC2)[C@]2(C)[C@H](C)CC[C@]3(CCC(=O)[C@@H]32)[C@@H](C)[C@@H]1O (stereo partly drawn) | 0.125 µg/mL (≈ 0.16 µM) | 0.032 µg/mL (≈ 0.0411 µM) | 0.5 µg/mL (≈ 0.642 µM) | 4 µg/mL (≈ 5.13 µM) | 0.25 µg/mL (≈ 0.321 µM) | 0.25 µg/mL (≈ 0.321 µM) | 4 µg/mL (≈ 5.13 µM) | 0.5 µg/mL (≈ 0.642 µM) | 1.01 mg/kg
5 | C=C[C@]1(C)C[C@@H](OC(=O)CSC2CCN(C(=O)CCn3cnc4c(N5CC(N)C5)nc(N)nc43)CC2)[C@]2(C)[C@H](C)CC[C@]3(CCC(=O)[C@@H]32)[C@@H](C)[C@@H]1O | 0.063 µg/mL (≈ 0.0855 µM) | 0.063 µg/mL (≈ 0.0855 µM) | 0.25 µg/mL (≈ 0.339 µM) | 1 µg/mL (≈ 1.36 µM) | 0.125 µg/mL (≈ 0.17 µM) | 0.25 µg/mL (≈ 0.339 µM) | 1 µg/mL (≈ 1.36 µM) | 0.5 µg/mL (≈ 0.678 µM) | 3.04 mg/kg
6 | C=C[C@]1(C)C[C@@H](OC(=O)CSC2CCN(C(=O)CCn3cnc4c(N5CCC(CN)C5)ncnc43)CC2)[C@]2(C)[C@H](C)CC[C@]3(CCC(=O)[C@@H]32)[C@@H](C)[C@@H]1O (stereo partly drawn) | 0.016 µg/mL (≈ 0.0213 µM) | 0.008 µg/mL (≈ 0.0107 µM) | 0.125 µg/mL (≈ 0.167 µM) | 0.5 µg/mL (≈ 0.667 µM) | 0.032 µg/mL (≈ 0.0427 µM) | 0.063 µg/mL (≈ 0.084 µM) | 1 µg/mL (≈ 1.33 µM) | 0.125 µg/mL (≈ 0.167 µM) | 0.59 mg/kg
7 | C=C[C@]1(C)C[C@@H](OC(=O)CSC2CCN(C(=O)CCn3cnc4c(N5CC[C@H](N)C5)ncnc43)CC2)[C@]2(C)[C@H](C)CC[C@]3(CCC(=O)[C@@H]32)[C@@H](C)[C@@H]1O | 0.032 µg/mL (≈ 0.0435 µM) | 0.016 µg/mL (≈ 0.0217 µM) | 0.125 µg/mL (≈ 0.17 µM) | 0.5 µg/mL (≈ 0.679 µM) | 0.032 µg/mL (≈ 0.0435 µM) | 0.125 µg/mL (≈ 0.17 µM) | 2 µg/mL (≈ 2.72 µM) | 0.125 µg/mL (≈ 0.17 µM) | 1.3 mg/kg
8 | C=C[C@]1(C)C[C@@H](OC(=O)CSC2CCN(C(=O)CCn3cnc4c(N5CC[C@@H](N)C5)ncnc43)CC2)[C@]2(C)[C@H](C)CC[C@]3(CCC(=O)[C@@H]32)[C@@H](C)[C@@H]1O | 0.016 µg/mL (≈ 0.0217 µM) | 0.008 µg/mL (≈ 0.0109 µM) | 0.063 µg/mL (≈ 0.0856 µM) | 0.25 µg/mL (≈ 0.34 µM) | 0.016 µg/mL (≈ 0.0217 µM) | 0.063 µg/mL (≈ 0.0856 µM) | 1 µg/mL (≈ 1.36 µM) | 0.063 µg/mL (≈ 0.0856 µM) | 1.01 mg/kg
9 | C=C[C@]1(C)C[C@@H](OC(=O)CSC2CCN(C(=O)CCn3cnc4c(N5CCC(N(C)C)C5)nc(N)nc43)CC2)[C@]2(C)[C@H](C)CC[C@]3(CCC(=O)[C@@H]32)[C@@H](C)[C@@H]1O (stereo partly drawn) | 0.063 µg/mL (≈ 0.0809 µM) | 0.063 µg/mL (≈ 0.0809 µM) | 0.125 µg/mL (≈ 0.16 µM) | 0.25 µg/mL (≈ 0.321 µM) | 0.063 µg/mL (≈ 0.0809 µM) | 0.125 µg/mL (≈ 0.16 µM) | 2 µg/mL (≈ 2.57 µM) | 0.25 µg/mL (≈ 0.321 µM) | 3 mg/kg
10 | C=C[C@]1(C)C[C@@H](OC(=O)CSC2CCN(C(=O)CCn3cnc4c(N5CCC(CN)C5)nc(N)nc43)CC2)[C@]2(C)[C@H](C)CC[C@]3(CCC(=O)[C@@H]32)[C@@H](C)[C@@H]1O (stereo partly drawn) | 0.063 µg/mL (≈ 0.0823 µM) | 0.032 µg/mL (≈ 0.0418 µM) | 0.5 µg/mL (≈ 0.654 µM) | 2 µg/mL (≈ 2.61 µM) | 0.125 µg/mL (≈ 0.163 µM) | 0.125 µg/mL (≈ 0.163 µM) | 4 µg/mL (≈ 5.23 µM) | 0.5 µg/mL (≈ 0.654 µM) | 2.84 mg/kg
11 | C=C[C@]1(C)C[C@@H](OC(=O)CSC2CCN(C(=O)CCn3cnc4c(N5CCC(CNC)C5)ncnc43)CC2)[C@]2(C)[C@H](C)CC[C@]3(CCC(=O)[C@@H]32)[C@@H](C)[C@@H]1O (stereo partly drawn) | 0.063 µg/mL (≈ 0.0825 µM) | 0.016 µg/mL (≈ 0.0209 µM) | 0.125 µg/mL (≈ 0.164 µM) | 0.5 µg/mL (≈ 0.654 µM) | 0.063 µg/mL (≈ 0.0825 µM) | 0.125 µg/mL (≈ 0.164 µM) | 2 µg/mL (≈ 2.62 µM) | 0.25 µg/mL (≈ 0.327 µM) | 0.76 mg/kg
12 | C=C[C@]1(C)C[C@@H](OC(=O)CSC2CCN(C(=O)CCn3cnc4c(N5CC(NC)C5)nc(N)nc43)CC2)[C@]2(C)[C@H](C)CC[C@]3(CCC(=O)[C@@H]32)[C@@H](C)[C@@H]1O | 0.063 µg/mL (≈ 0.0839 µM) | 0.125 µg/mL (≈ 0.166 µM) | 0.5 µg/mL (≈ 0.666 µM) | 1 µg/mL (≈ 1.33 µM) | 0.125 µg/mL (≈ 0.166 µM) | 0.25 µg/mL (≈ 0.333 µM) | 2 µg/mL (≈ 2.66 µM) | 0.5 µg/mL (≈ 0.666 µM) | 3.97 mg/kg
13 | CN[C@H](CC(C)C)C(=O)N[C@H]1C(=O)N[C@@H](CC(N)=O)C(=O)N[C@H]2C(=O)N[C@H]3C(=O)N[C@H](C(=O)N[C@H](C(=O)O)c4cc(O)cc(O)c4-c4cc3ccc4O)[C@H](O)c3ccc(c(Cl)c3)Oc3cc2cc(c3O[C@@H]2O[C@H](CO)[C@@H](O)[C@H](O)[C@H]2O[C@H]2C[C@](C)(N)[C@H](O)[C@H](C)O2)Oc2ccc(cc2Cl)[C@H]1O [VANCOMYCIN] | 0.25 µg/mL (≈ 0.173 µM) |  | > 128 µg/mL |  | 0.5 µg/mL (≈ 0.345 µM) | 64 µg/mL (≈ 44.2 µM) | > 128 µg/mL |  | 0.88 mg/kg
